Assays:
eggs of Thrips = experiment: Effect on hatching of eggs of Thrips, leaf disc method; assay type: in vivo; details: 100 ppm; for Hatching rate (%): 5 days after insecticide delivery
In short: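 Thrip egg hatching was tested by the leaf disc method on Vicia faba discs 2.0 cm across, placed over wetted filter paper. Egg numbers on each disc were counted under a microscope before treatment. Discs were then dipped for 10 seconds in clean water or a compound solution at 100 ppm. They were kept moist under normal conditions, and hatching was surveyed five days after insecticide delivery.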

eggs of Aleyrodidae = experiment: Effect on hatching of eggs of Aleyrodidae, leaf disc method; assay type: in vivo; details: 10 ppm; for Hatching rate (%), Replicate 1 / Hatching rate (%), Replicate 2 / Hatching rate (%), Replicate 3 / Number of hatched larvae 5 days after insecticide delivery, Replicate 1 / Number of hatched larvae 5 days after insecticide delivery, Replicate 2 / Number of hatched larvae 5 days after insecticide delivery, Replicate 3: Aleyrodidae eggs; for Hatching rate (%), Replicate 1 / Hatching rate (%), Replicate 2 / Hatching rate (%), Replicate 3: 5 days after delivery; for Number of hatched larvae 5 days after insecticide delivery, Replicate 1 / Number of hatched larvae 5 days after insecticide delivery, Replicate 2 / Number of hatched larvae 5 days after insecticide delivery, Replicate 3: leaf disc
In short: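 Inhibition of Aleyrodidae egg hatching was tested with a leaf disc method at 10 ppm. Egg numbers on each disc were counted under a microscope before treatment. Discs bearing eggs were soaked for 10 seconds in clear water or test solution, removed, and kept under moist conditions. Hatching was checked five days after insecticide delivery and hatched larvae were counted.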

[1] = tested on: eggs of Spodoptera litura; experiment: Effect on hatching of eggs of Spodoptera litura, egg piece soaking; assay type: in vivo; details: Spodoptera litura eggs, 500 ppm; for Hatching rate (%), Replicate 1 / Hatching rate (%), Replicate 2 / Hatching rate (%), Replicate 3: 4 days after delivery; for Number of unhatched larvae 4 days after insecticide delivery, Replicate 1 / Number of unhatched larvae 4 days after insecticide delivery, Replicate 2 / Number of unhatched larvae 4 days after insecticide delivery, Replicate 3: soaked 10 minutes
In short: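 Egg pieces of about 60 eggs were soaked 10 min in test agent at 500 ppm, blotted, then held singly at 24±1 °C, 80±10% RH, 12:12 L:D. Hatched and unhatched eggs were counted on day 4 to give hatching rate and control effect; 3 replicates.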

[2] = tested on: eggs of Harmonia axyridis; experiment: Effect on hatching of eggs of Harmonia axyridis, egg card immersion; assay type: in vivo; details: 100 ppm; for Number of hatched larvae 4 days after insecticide delivery, Replicate 1 / Number of hatched larvae 4 days after insecticide delivery, Replicate 2 / Number of hatched larvae 4 days after insecticide delivery, Replicate 3: Harmonia axyridis egg cards, immersed 30 seconds; for Hatching rate (%), Replicate 1 / Hatching rate (%), Replicate 2 / Hatching rate (%), Replicate 3: Harmonia axyridis eggs, 4 days after delivery
In short: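 Egg cards (~20 eggs each) dipped 30 s in 100 ppm insecticide, air dried and kept moist at 27° C; 5 cards per treatment, 3 replicates. Hatching assessed 4 days after treatment against pre-treatment egg counts, and control effect calculated by formula.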

Magnaporthe grisea = assay type: cell-based; details: 100 ppm; for Average antifungal rate (%) / Antifungal rate of Magnaporthe grisea (%), Replicate 1 / Antifungal rate of Magnaporthe grisea (%), Replicate 2 / Antifungal rate of Magnaporthe grisea (%), Replicate 3: 96-well plate; for Average antifungal rate (%): average of 3 replicates

SMILES	inhibitory activity on the hatching of eggs of Thrips (in words) (eggs of Thrips)	Hatching rate (%) (eggs of Thrips; Replicate 1)	Hatching rate (%) (eggs of Thrips; Replicate 2)	Hatching rate (%) (eggs of Thrips; Replicate 3)	Number of hatched larvae 5 days after insecticide delivery (eggs of Thrips; Replicate 1)	Number of hatched larvae 5 days after insecticide delivery (eggs of Thrips; Replicate 2)	Number of hatched larvae 5 days after insecticide delivery (eggs of Thrips; Replicate 3)	inhibitory activity on the hatching of eggs of Aleyrodidae (in words) (eggs of Aleyrodidae)	Hatching rate (%), Replicate 1 (eggs of Aleyrodidae) [%]	Hatching rate (%), Replicate 2 (eggs of Aleyrodidae) [%]	Hatching rate (%), Replicate 3 (eggs of Aleyrodidae) [%]	Number of hatched larvae 5 days after insecticide delivery, Replicate 1 (eggs of Aleyrodidae)	Number of hatched larvae 5 days after insecticide delivery, Replicate 2 (eggs of Aleyrodidae)	Number of hatched larvae 5 days after insecticide delivery, Replicate 3 (eggs of Aleyrodidae)	Hatching rate (%), Replicate 1 [1] [%]	Hatching rate (%), Replicate 2 [1] [%]	Hatching rate (%), Replicate 3 [1] [%]	Number of unhatched larvae 4 days after insecticide delivery, Replicate 1 [1]	Number of unhatched larvae 4 days after insecticide delivery, Replicate 2 [1]	Number of unhatched larvae 4 days after insecticide delivery, Replicate 3 [1]	further results
CC(C)(COS(=O)OCCF)Oc1ccc(Cl)cc1Cl (stereo not drawn) [Compound 10′]	strong inhibitory activities	0.00	1.55	0.00	0	2	0	strong inhibitory activities	2.02	0.97	1.05	2	1	1	40.63	41.94	42.37	38	36	34	inhibitory activity on the hatching of eggs of Harmonia axyridis (in words) [2]: strong inhibitory activities; Number of hatched larvae 4 days after insecticide delivery, Replicate 1 [2]: 5; Number of hatched larvae 4 days after insecticide delivery, Replicate 2 [2]: 5; Number of hatched larvae 4 days after insecticide delivery, Replicate 3 [2]: 6; Hatching rate (%), Replicate 1 [2]: 5.75%; Hatching rate (%), Replicate 2 [2]: 5.26%; Hatching rate (%), Replicate 3 [2]: 4.92%; inhibitory rate against Magnaporthe grisea (in words) (Magnaporthe grisea): strong inhibitory rate; Average antifungal rate (%) (Magnaporthe grisea): 94.31%; Antifungal rate of Magnaporthe grisea (%), Replicate 1 (Magnaporthe grisea): 94.01%; Antifungal rate of Magnaporthe grisea (%), Replicate 2 (Magnaporthe grisea): 95.16%; Antifungal rate of Magnaporthe grisea (%), Replicate 3 (Magnaporthe grisea): 93.77%
CCC(COc1ccc(Cl)cc1Cl)OS(=O)OCCF (stereo not drawn) [Compound 19]	strong inhibitory activities	0.00	0.83	0.00	0	1	0	strong inhibitory activities	0.00	0.00	0.00	0	0	0	29.41	30.16	29.82	36	44	40	inhibitory activity on the hatching of eggs of Harmonia axyridis (in words) [2]: strong inhibitory activities; Number of hatched larvae 4 days after insecticide delivery, Replicate 1 [2]: 3; Number of hatched larvae 4 days after insecticide delivery, Replicate 2 [2]: 5; Number of hatched larvae 4 days after insecticide delivery, Replicate 3 [2]: 4; Hatching rate (%), Replicate 1 [2]: 3.26%; Hatching rate (%), Replicate 2 [2]: 4.45%; Hatching rate (%), Replicate 3 [2]: 4.17%; inhibitory rate against Magnaporthe grisea (in words) (Magnaporthe grisea): strong inhibitory rate; Average antifungal rate (%) (Magnaporthe grisea): 95.57%; Antifungal rate of Magnaporthe grisea (%), Replicate 1 (Magnaporthe grisea): 97.23%; Antifungal rate of Magnaporthe grisea (%), Replicate 2 (Magnaporthe grisea): 95.14%; Antifungal rate of Magnaporthe grisea (%), Replicate 3 (Magnaporthe grisea): 94.35%
CCC(COS(=O)OCCF)Oc1ccc(Cl)cc1Cl (stereo not drawn) [Compound 19′]	strong inhibitory activities	0.95	1.15	0.00	1	1	0	strong inhibitory activities	0.00	0.00	0.00	0	0	0	32.76	32.14	35.94	39	38	41	inhibitory activity on the hatching of eggs of Harmonia axyridis (in words) [2]: strong inhibitory activities; Number of hatched larvae 4 days after insecticide delivery, Replicate 1 [2]: 4; Number of hatched larvae 4 days after insecticide delivery, Replicate 2 [2]: 5; Number of hatched larvae 4 days after insecticide delivery, Replicate 3 [2]: 7; Hatching rate (%), Replicate 1 [2]: 4.49%; Hatching rate (%), Replicate 2 [2]: 5.21%; Hatching rate (%), Replicate 3 [2]: 6.48%; inhibitory rate against Magnaporthe grisea (in words) (Magnaporthe grisea): strong inhibitory rate; Average antifungal rate (%) (Magnaporthe grisea): 92.59%; Antifungal rate of Magnaporthe grisea (%), Replicate 1 (Magnaporthe grisea): 91.33%; Antifungal rate of Magnaporthe grisea (%), Replicate 2 (Magnaporthe grisea): 93.48%; Antifungal rate of Magnaporthe grisea (%), Replicate 3 (Magnaporthe grisea): 92.95%
